Patent US8324152B2, “Composition for the treatment of atherosclerosis” (Institute National de la Sante et de la Recherche Medicale …, priority 2005, dated 2012)
No end group written: not given here.

Assays:
[1] = system: Native or MDA-modified peptides 210 and 240; experiment: Determination of antibody titers against peptide (serum IgG/IgM ELISA); assay type: in vivo, mice; conditions: Example 1; mouse serum 1:50, 405 nm
Protocol: (§1) Male ApoE −/− mice (B&M, RY, DENMARK, 11 week old) were implanted subcutaneously with mini-osmotic pumps (ALZET1002, DURECT CORPORATION) diffusing PBS or 10 μg of P210, MDA-P210 or P240 per day and for 14 day, at a rate of 0.25 μl/h.
Native or MDA-modified peptides 210 and 240 were used for coating (10 μg/ml of each in PBS pH 7.4) microtiter plates (Nunc MaxiSorp, Nunc, Roskilde, Denmark) in an overnight incubation at 4° C. Coated plates were washed with PBS with 0.05% Tween-20 and thereafter blocked with SuperBlock in Tris-buffered saline (TBS, Pierce) for 5 minutes at room temperature followed by an incubation of mouse serum diluted 1:50 in TBS-0.05% Tween-20 for 2 hours at room temperature and overnight at 4° C. After rinsing, depositions were detected by using biotinylated goat anti-mouse IgM or IgG antibodies (JACKSON IMMUNORESEARCH, West Grove, Pa.) that were incubated for 2 hours at room temperature. The plates were washed and bound biotinylated antibodies were detected by alkaline phosphatase-conjugated streptavidin (SIGMA). The color reaction was developed using phosphatase substrate kit (Pierce). The absorbency at 405 nm was measured after 1 hour of incubation at room temperature. Mean values were calculated after subtraction of background absorbance.

Male ApoE −/− mice = experiment: Atherosclerotic lesion size (morphometric analysis) in apoE-/- mice after pump delivery of peptide; assay type: in vivo; conditions: Example 2; apoE null mice; result in words
Protocol: as §1
Then, the mice are kept for another 6 weeks and killed at 19 weeks of age.
Total Plasma and HDL cholesterol were measured with a commercially available cholesterol kit (SIGMA) according to the manufacturer's instructions. Morphometric and immuno-histochemical studies were performed in the aortic sinus and in the thoracic aorta (spanning from the brachiocephalic artery to the renal arteries). Collagen fibers were stained with Sirius red. Immuno-histochemical analysis were then performed. The following primary antibodies were used: MOMA-2 (BIOSOURCE INTERNATIONAL) as a specific marker for macrophages; anti-mouse CD3− (SANTA CRUZ); anti-smooth muscle actin, alkaline phosphatase conjugate, clone 1A4 (SIGMA); and anti-IL-10 antibody (SANTA CRUZ). Morphometric analysis was performed with an automated image processor (HISTOLAB, MICROVISION).
Male apoE−/− mice (B&M, RY, DENMARK, 11 week old) were implanted subcutaneously with mini-osmotic pumps (ALZET1002, DURECT CORPORATION) diffusing phosphate buffer saline (PBS) as control or 10 μg per day of P210, MDA-P210 or P240, for 14 days, at a rate of […]. An additional group of mice receiving ovalbumin (OVA) peptide (323-339) served as control.
Then, the mice were kept for another 6 or 10 weeks and killed at 19 or 23 weeks of age.
Male apoE−/− mice (11-week old) were implanted subcutaneously with mini-osmotic pumps (ALZET1002) diffusing phosphate buffer saline (PBS), as control, or 10 μg per day of P210, MDA-P210 or P240, for 14 days at a rate of 0.25 μl/h. An additional group of mice receiving ovalbumin (OVA) peptide (323-339) served as control. Mice were kept for another 6 weeks and killed at 19 weeks of age. […]

CD4+ cells = experiment: Cell proliferation assay: CD4+ cells with CD11c+ dendritic cells from treated mice, [3H]-thymidine; assay type: cell-based; conditions: Example 1; anti-CD3 3 μg/ml, 72 hours; PBS control 20 000 cpm
Source text: T cells were purified from spleen or from draining lymph nodes by negative selection with anti-CD11b (M1/70), anti B220, anti-CD8 and anti-NK cells (DX5) followed by depletion with a mixture of magnetic beads coated with anti-rat Ig (DYNAL). CD11c+ dendritic cells were purified by positive selection with anti-CD11c using directly conjugated anti-CD11c beads (clone N418; MILTENYI BIOTEC).
For the cell proliferation assay, purified CD4+ cells (50 000) were mixed with CD11c+ cells (10 000) and anti-CD3 antibodies (3 μg/ml) for 72 hours. [3H]-Thymidine (1 μCi; PERKIN ELMER) was added for the last 18 hours of cell culture.

## FPDLGQEVALNANTKNQKIR (peptide derived from apolipoprotein B) [P240, Human apoB-100 derived peptide, amino acids 3586 to 3605]
[1]
  IgG against MDA-P210: 0.62±0.11 absorbance units
  IgG against MDA-P240: 0.037±0.007 absorbance units
  IgG against P210: 0.47±0.09 absorbance units
  IgM against MDA-P210: 0.79±0.45 absorbance units
  IgM against MDA-P240: 1.34±0.52 absorbance units
  IgM against P210: 0.79±0.45 absorbance units

## ISQAVHAAHAEINEAGR (peptide derived from ovalbumin) [Control: chicken ovalbumin (OVA) peptide, amino acids 323 to 339, reference compound]
Male ApoE −/− mice
  Effect of continuous administration on atherosclerotic plaques, associated inflammation and plaque composition: No significant modification

## KTTKQSFDLSVKAQYKKNKH (peptide derived from apolipoprotein B) [P210, Human apoB-100 derived peptide, amino acids 3136 to 3155]
Male ApoE −/− mice
  Effect of continuous administration on atherosclerotic plaques, associated inflammation and plaque composition: diminution of the atherosclerotic plaques and of associated inflammation
[1]
  IgG against MDA-P210: 1.45±0.49 absorbance units
  IgG against MDA-P240: 0.080±0.038 absorbance units
  IgG against P210: 0.81±0.22 absorbance units
  IgM against MDA-P210: 1.38±0.04 absorbance units
  IgM against MDA-P240: 1.80±0.41 absorbance units
  IgM against P210: 1.17±0.22 absorbance units

## MDA-P210: Malondialdehyde (MDA)-modified human apoB-100 derived peptide; native P210 modified by 0.5 mol/L MDA for 3 hours at 37° C. (KTTKQSFDLSVKAQYKKNKH; not fully specified)
Male ApoE −/− mice
  Effect of continuous administration on atherosclerotic plaques, associated inflammation and plaque composition: diminution of the atherosclerotic plaques and of associated inflammation
[1]
  IgG against MDA-P210: 0.83±0.28 absorbance units
  IgG against MDA-P240: 0.041±0.007 absorbance units
  IgG against P210: 0.51±0.07 absorbance units
  IgM against MDA-P210: 1.30±0.13 absorbance units
  IgM against MDA-P240: 1.24±0.40 absorbance units
  IgM against P210: 0.55±0.25 absorbance units
CD4+ cells
  Proliferation of CD4+ cells from control mice in the presence of CD11c+ cells from treated mice: 9500 cpm
